According to PubChem BioAssay (NCI):
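Assay format: 96-well plates, 48-hour exposure. GI50 is the concentration that inhibits growth by half. Definition used: TGI = concentration required for complete inhibition of growth.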

Assays:
Assay in all cases: inhibition of tumour cell growth, NCI panel, 48 h
DU-145 prostate = tested on: DU-145 prostate
KM12 colon = tested on: KM12 colon
SK-MEL-28 melanoma = tested on: SK-MEL-28 melanoma
K-562 leukemia = tested on: K-562 leukemia
NCI-H460 lung = tested on: NCI-H460 lung
RXF 393 renal = tested on: RXF 393 renal
MALME-3M melanoma = tested on: MALME-3M melanoma
SK-OV-3 ovarian = tested on: SK-OV-3 ovarian
HS 578T breast = tested on: HS 578T breast
786-0 renal = tested on: 786-0 renal
SR leukemia = tested on: SR leukemia
SW-620 colon = tested on: SW-620 colon
MCF7 breast = tested on: MCF7 breast
SNB-75 CNS = tested on: SNB-75 CNS
HL-60(TB) leukemia = tested on: HL-60(TB) leukemia
T-47D breast = tested on: T-47D breast
NCI-H226 lung = tested on: NCI-H226 lung
U251 CNS = tested on: U251 CNS
NCI-H23 lung = tested on: NCI-H23 lung
HCC-2998 colon = tested on: HCC-2998 colon
SF-539 CNS = tested on: SF-539 CNS
SF-295 CNS = tested on: SF-295 CNS
EKVX NSCLC = tested on: EKVX NSCLC
A498 renal = tested on: A498 renal
OVCAR-8 ovarian = tested on: OVCAR-8 ovarian
HCT-116 colon = tested on: HCT-116 colon
OVCAR-4 ovarian = tested on: OVCAR-4 ovarian
CAKI-1 renal = tested on: CAKI-1 renal
OVCAR-3 ovarian = tested on: OVCAR-3 ovarian
HOP-62 NSCLC = tested on: HOP-62 NSCLC
MDA-MB-435 = tested on: MDA-MB-435
HT29 colon = tested on: HT29 colon
SN12C renal = tested on: SN12C renal
A549 NSCLC = tested on: A549 NSCLC
PC-3 prostate = tested on: PC-3 prostate
OVCAR-5 ovarian = tested on: OVCAR-5 ovarian
RPMI-8226 leukemia = tested on: RPMI-8226 leukemia
MDA-MB-231 breast = tested on: MDA-MB-231 breast
HCT-15 colon = tested on: HCT-15 colon
NCI/ADR-RES ovarian = tested on: NCI/ADR-RES ovarian
SF-268 CNS = tested on: SF-268 CNS
UACC-62 melanoma = tested on: UACC-62 melanoma
SNB-19 CNS = tested on: SNB-19 CNS
TK-10 renal = tested on: TK-10 renal
SK-MEL-2 melanoma = tested on: SK-MEL-2 melanoma
SK-MEL-5 melanoma = tested on: SK-MEL-5 melanoma
HOP-92 NSCLC = tested on: HOP-92 NSCLC
UACC-257 melanoma = tested on: UACC-257 melanoma
NCI-H522 lung = tested on: NCI-H522 lung
M14 melanoma = tested on: M14 melanoma
CCRF-CEM leukemia = tested on: CCRF-CEM leukemia
BT-549 breast = tested on: BT-549 breast
IGROV1 ovarian = tested on: IGROV1 ovarian

O=C(Nc1ccc(CN2CCOCC2)cc1)c1[nH]ncc1Nc1ncnc2sccc12
GI50 (DU-145 prostate): 382 nM
TGI (DU-145 prostate): 15500 nM
GI50 (KM12 colon): 311 nM
TGI (KM12 colon): 10100 nM
GI50 (SK-MEL-28 melanoma): 629 nM
TGI (SK-MEL-28 melanoma): 16800 nM
GI50 (K-562 leukemia): 402 nM
TGI (K-562 leukemia): > 100000 nM
GI50 (NCI-H460 lung): 314 nM
TGI (NCI-H460 lung): 10900 nM
GI50 (RXF 393 renal): 204 nM
TGI (RXF 393 renal): 639 nM
GI50 (MALME-3M melanoma): 1830 nM
TGI (MALME-3M melanoma): 8610 nM
GI50 (SK-OV-3 ovarian): 103 nM
TGI (SK-OV-3 ovarian): > 100000 nM
GI50 (HS 578T breast): 140 nM
TGI (HS 578T breast): 4810 nM
GI50 (786-0 renal): 480 nM
TGI (786-0 renal): 7960 nM
GI50 (SR leukemia): 261 nM
TGI (SR leukemia): 989 nM
GI50 (SW-620 colon): 418 nM
TGI (SW-620 colon): > 100000 nM
GI50 (MCF7 breast): 265 nM
TGI (MCF7 breast): > 100000 nM
GI50 (SNB-75 CNS): 17.4 nM
TGI (SNB-75 CNS): 2040 nM
GI50 (HL-60(TB) leukemia): 249 nM
TGI (HL-60(TB) leukemia): 720 nM
GI50 (T-47D breast): 739 nM
TGI (T-47D breast): > 100000 nM
GI50 (NCI-H226 lung): 163 nM
TGI (NCI-H226 lung): 630 nM
GI50 (U251 CNS): 281 nM
TGI (U251 CNS): 13200 nM
GI50 (NCI-H23 lung): 358 nM
TGI (NCI-H23 lung): 2490 nM
GI50 (HCC-2998 colon): 680 nM
TGI (HCC-2998 colon): 5080 nM
GI50 (SF-539 CNS): 141 nM
TGI (SF-539 CNS): 1150 nM
GI50 (SF-295 CNS): 484 nM
TGI (SF-295 CNS): 16500 nM
GI50 (EKVX NSCLC): 805 nM
TGI (EKVX NSCLC): 4300 nM
GI50 (A498 renal): 36.3 nM
TGI (A498 renal): 461 nM
GI50 (OVCAR-8 ovarian): 522 nM
TGI (OVCAR-8 ovarian): 22400 nM
GI50 (HCT-116 colon): 217 nM
TGI (HCT-116 colon): 12300 nM
GI50 (OVCAR-4 ovarian): 600 nM
TGI (OVCAR-4 ovarian): 6280 nM
GI50 (CAKI-1 renal): 477 nM
TGI (CAKI-1 renal): > 100000 nM
GI50 (OVCAR-3 ovarian): 290 nM
TGI (OVCAR-3 ovarian): 2810 nM
GI50 (HOP-62 NSCLC): 669 nM
TGI (HOP-62 NSCLC): 41600 nM
GI50 (MDA-MB-435): 525 nM
TGI (MDA-MB-435): 11700 nM
GI50 (HT29 colon): 686 nM
TGI (HT29 colon): > 100000 nM
GI50 (SN12C renal): 390 nM
TGI (SN12C renal): > 100000 nM
GI50 (A549 NSCLC): 306 nM
TGI (A549 NSCLC): 13800 nM
GI50 (PC-3 prostate): 494 nM
TGI (PC-3 prostate): > 100000 nM
GI50 (OVCAR-5 ovarian): 904 nM
TGI (OVCAR-5 ovarian): > 100000 nM
GI50 (RPMI-8226 leukemia): 517 nM
TGI (RPMI-8226 leukemia): 4330 nM
GI50 (MDA-MB-231 breast): 854 nM
TGI (MDA-MB-231 breast): > 100000 nM
GI50 (HCT-15 colon): 277 nM
TGI (HCT-15 colon): 16700 nM
GI50 (NCI/ADR-RES ovarian): 578 nM
TGI (NCI/ADR-RES ovarian): > 100000 nM
GI50 (SF-268 CNS): 595 nM
TGI (SF-268 CNS): 5600 nM
GI50 (UACC-62 melanoma): 707 nM
TGI (UACC-62 melanoma): 5700 nM
GI50 (SNB-19 CNS): 703 nM
TGI (SNB-19 CNS): > 100000 nM
GI50 (TK-10 renal): 1640 nM
TGI (TK-10 renal): > 100000 nM
GI50 (SK-MEL-2 melanoma): 360 nM
TGI (SK-MEL-2 melanoma): 2140 nM
GI50 (SK-MEL-5 melanoma): 223 nM
TGI (SK-MEL-5 melanoma): 638 nM
GI50 (HOP-92 NSCLC): 5520 nM
TGI (HOP-92 NSCLC): > 100000 nM
GI50 (UACC-257 melanoma): 1960 nM
TGI (UACC-257 melanoma): 25200 nM
GI50 (NCI-H522 lung): 413 nM
TGI (NCI-H522 lung): 4170 nM
GI50 (M14 melanoma): 560 nM
TGI (M14 melanoma): 13000 nM
GI50 (CCRF-CEM leukemia): 337 nM
TGI (CCRF-CEM leukemia): 27700 nM
GI50 (BT-549 breast): 896 nM
TGI (BT-549 breast): 5880 nM
GI50 (IGROV1 ovarian): 578 nM
TGI (IGROV1 ovarian): 23600 nM
